Structures can show the parent of a compound that is named as a salt. Where two headings read alike, the source gives them in different places.
Tests used:
isolated rat kidneys = assay: Isolated perfused rat kidney (ex vivo model)
Description: Systemically administered DFX can induce ubiquitous HIF-1 stability and kidney-specific erythropoietin expression in mice (Wang, G. L., and Semenza, G. L. (1993), Desferrioxamine Induces Erythropoietin Gene Expression and Hypoxia-Inducible Factor 1 DNA-Binding Activity: Implications for Models of Hypoxia Signal Transduction, Blood 82, 3610-3615). Regarding a topical application of CPX as a HIF-1-inducing agent for therapeutic angiogenesis, it was important to test whether CPX could lead to a systemic induction of VEGF. […]

rabbit skin = conditions: 1% CPX solution applied on rabbit skin over 20 days; cited from earlier work
[1] = test system: chicken chorioallantoic membrane (CAM)
Procedure: CAM assays were performed as described by Olivo, M. et al. (A Comparative Study on The Effects of Tumor Necrosis Factor-A (TNF-α), Human Angiogenic Factor (h-AF) and Basic Fibroblast Growth Factor (bFGF) on the Chorioallantoic Membrane of the Chick Embryo, (1992) Anat. Rec. 234, 105-115). Briefly, fertilized eggs (purchased from Lohmann Tierzucht, Cuxhaven, Germany) were incubated at 37° C. in a humidified atmosphere. The eggs were kept on their sides and turned upside down twice a day. After 6 days, a small hole was drilled through the shell into the air sac (visualized using a strong light source) and a window of approximately 0.5 cm^2 was sawed into the side of the egg. The window was sealed with tape and the eggs were reincubated until day 9, when 6-cyclohexyl-1-hydroxy-4-methyl-2(1H)-pyridone 2-aminoethanol salt (CPX) was applied to the CAM using the Elvax® method (see Olivo, M. et al. above). Therefore, ethylene/vinyl acetate copolymer beads (Elvax®) 40L-03, DuPont, provided by C. H. Erbslöh KG, Krefeld, Germany) were extensively washed in ethanol and dried under reduced pressure. The Elvax® beads were then dissolved in methylene chloride at 10% (w/v) and CPX was added to the desired concentration. One drop (40 μL) of this solution was pipetted onto a siliconized glass slide and the solvent was allowed to evaporate completely. Using forceps, the Elvax® disc was carefully lifted from the glass slides and placed onto the CAM. At day 11, the window was enlarged and the CAM was documented using a digital camera (Olympus) coupled to an ocular of a stereomicroscope.
Therefore, the chicken CAM at day 9 of development was overlaid with inert polymer discs containing various concentrations of CPX or solvent only.

VEGF protein = assay: Accumulation of VEGF protein in the supernatant of the HepG2 cell culture; assay type: cell-based, human; conditions: following 6 or 24 hours of treatment
Procedure: (§1) The HRCHO5 cells containing a stable transfected, HIF-1-dependent reporter gene were described previously (Wanner, R. M., et al. (2000), Epolones Induce Erythropoietin Expression Via Hypoxia-Inducible Factor-1α Activation, Blood 96, 1558-1565). The human HepG2 hepatoma cell line was obtained from American Type Culture Collection (ATCC numbers HB-8065). All cell lines were cultured in Dulbecco's modified Eagle's medium (DMEM, high glucose, Life Technologies) supplemented with 10% heat-inactivated FCS, 100 U/ml penicillin, 100 μg/ml streptomycin, 1× non-essential amino acids and 1 mM Na-pyruvate (all purchased from Life Technologies) in a humidified atmosphere containing 5% CO2 at 37° C. Oxygen partial pressures in the incubator (Forma Scientific, model 3131) were either 140 mm Hg (20% 02 v/v, normoxia) or 7 mm Hg (1% O2 v/v, hypoxia). Ciclopirox olamine (CPX), deferoxamine mesylate (DFX) and 2,2′-dipyridyl (DP) were purchased from Sigma. Stock solutions of CPX and DP were prepared in methanol at 0.5 M and 1 M, respectively. DFX was freshly dissolved at 10 mM into the cell culture medium.

[2] = test system: HIF-1 target genes VEGF, glucose transporter-1 (Glut-1) and aldolase; assay: Northern blotting of mRNA of endogenous HIF-1 target genes in HepG2 cells; assay type: cell-based, human; conditions: HepG2 cells treated for 24, 48 and 72 hours; control genes L28 and β-actin not induced
Procedure: as §1

NMRI mice = assay: Mouse skin wound model (punch-through ear holes); conditions: dermal cream containing 1% CPX, daily
Procedure: Both ears of adult NMRI mice were wounded under anesthesia with 100 mg/kg ketamine (Narketan®) and 5 mg/kg xylazine (Rompun®) by punch-through holes of 2 mm diameter using a standard ear-punching tool. The ears were treated daily with a common skin cream containing (Batrafen®) or not containing 1% (w/v) CPX. One ear was treated with CPX and the other ear with the control cream. The amount of cream was sufficient to cover the hole and was equally distributed over the entire ear.
Punch-through ear holes of 2 mm diameter (a widespread way of marking mice in animal facilities) were treated daily with a commercially available dermal cream containing 1% CPX on one ear and a CPX-free but otherwise identical common dermal cream on the other ear, respectively.

VEGF promoter = assay: VEGF promoter-driven luciferase reporter gene assay in transiently transfected HepG2 cells; assay type: cell-based, human; conditions: increasing concentrations of CPX for 24 hours
Procedure: The HRCHO5 cells containing a stable transfected, HIF-1-dependent reporter gene were described previously (Wanner, R. M., et al. (2000), Epolones Induce Erythropoietin Expression Via Hypoxia-Inducible Factor-1α Activation, Blood 96, 1558-1565). The human HepG2 hepatoma cell line was obtained from American Type Culture Collection (ATCC numbers HB-8065). All cell lines were cultured in Dulbecco's modified Eagle's medium (DMEM, high glucose, Life Technologies) supplemented with 10% heat-inactivated FCS, 100 U/ml penicillin, 100 μg/ml streptomycin, 1× non-essential amino acids and 1 mM Na-pyruvate (all purchased from Life Technologies) in a humidified atmosphere containing 5% CO2 at 37° C. […]
HepG2 cells were transiently electroporated with a VEGF promoter-driven luciferase construct as described previously (Ikeda, E., et al. (1995), Hypoxia-Induced Transcriptional Activation and Increased mRNA Stability of Vascular Endothelial Growth Factor in C6 Glioma Cells, J. Biol. Chem. 270, 19761-19766). Following stimulation, transiently and stable transfected cells were lysed in passive lysis buffer (Promega) and the luciferase activity was determined using a luciferase assay kit according to the manufacturer's instructions (Promega) in a 96-well luminometer (MicroLumat LB96P, EG&G Berthold). […] Absorbances at 570 nm were determined in a 96-well photometer (Rainbow, SLT Labsystems). […]

[3] = test system: gram-positive and gram-negative bacteria; conditions: cited from earlier work
HIF-1α protein = HIF-1α protein induction in HepG2 hepatoma cells; assay type: cell-based, human; conditions: for HIF-1α levels, combination with hypoxia: CPX plus hypoxia (1% O2)
Procedure: as §1

HIF-1 = conditions: systemically administered, mice; cited from earlier work
[4] = higher CPX concentrations (33 μM and 100 μM)
[5] = perfused 3 hours, normoxic, 0.1 μM to 100 μM

Cc1cc(C2CCCCC2)n(O)c(=O)c1.NCCO [CPX, 6-cyclohexyl-1-hydroxy-4-methyl-2(1H)-pyridone 2-aminoethanol salt]
albumin and sodium excretion rates (isolated rat kidneys; [4]): strong increase
kidney function (isolated rat kidneys; [4]): down regulation
Glut-1 mRNA level (isolated rat kidneys; [5]): did not induce
VEGF mRNA level (isolated rat kidneys; [5]): did not induce
aldolase mRNA level (isolated rat kidneys; [5]): did not induce
Glut-1 mRNA level under hypoxic perfusion (isolated rat kidneys; perfusion with 3% oxygen for 3 hours plus CPX): not further elevated
reddening of experimentally wounded skin (rabbit skin): persistent reddening
reddening of healthy skin (rabbit skin): occasionally transient reddening
number of CAMs showing angiogenesis ([1]; 50 mM CPX, all 7 control CAMs lacked angiogenesis): 10
CAM angiogenesis ([1]; polymer discs containing 5 mM CPX): indistinguishable from the controls
CAM angiogenesis ([1]; polymer discs containing 50 mM CPX, two days of incubation): consistently induced CAM angiogenesis
toxicity to the chick embryo ([1]; polymer discs containing 500 mM CPX): toxic
VEGF protein in the supernatant (VEGF protein): increased in a dose-dependent manner
expression of VEGF mRNA [2]: induced
expression of aldolase mRNA [2]: induced
expression of glucose transporter-1 (Glut-1) mRNA [2]: induced
animals showing reddening of the wound margin (NMRI mice): 4 of 10
reddening of the wound margin (NMRI mice): can cause reddening
angiogenesis in mouse skin wound model (NMRI mice; ear holes of 2 mm diameter): can induce angiogenesis
luciferase activity (1180 bp VEGF promoter fragment) (VEGF promoter): dose-dependent increase
effectiveness against gram-positive and gram-negative bacteria [3]: effective
HIF-1α protein (HIF-1α protein; 5 μM to 20 μM, normoxic HepG2 cells, after 6 and 24 hours of treatment): strongly induced
HIF-1α levels, combination with hypoxia (HIF-1α protein; after 6 hours): did not further increase
HIF-1α levels, combination with hypoxia (HIF-1α protein; after 24 hours of treatment): decreased

CC(=O)N(O)CCCCCNC(=O)CCC(=O)N(O)CCCCCNC(=O)CCC(=O)N(O)CCCCCN [DFX, deferoxamine mesylate]
kidney-specific erythropoietin expression (HIF-1): can induce
ubiquitous HIF-1 stability (HIF-1): can induce
expression of VEGF mRNA [2]: induced
expression of aldolase mRNA [2]: induced
expression of glucose transporter-1 (Glut-1) mRNA [2]: induced

c1ccc(-c2ccccn2)nc1 [DP, 2,2′-dipyridyl]
expression of VEGF mRNA [2]: induced
expression of aldolase mRNA [2]: induced
expression of glucose transporter-1 (Glut-1) mRNA [2]: induced

Source: patent publication US20040014794A1, “Use of hydroxypyridone-derivatives in wound healing” (priority 2002, published 2004)
